# Literature values as cited in patent publication US6110491A, “Compound-loaded liposomes and methods for their preparation” (Hermes Biosciences, Inc., priority 1997, dated 2000).
# Where two headings read alike, the source gives them in different places.
# Conditions: cited from earlier work; for pH-dependent solubility: 37° C.
smiles,measurement,setting,value
Nc1cc(-c2ccncc2)c[nH]c1=O [amrinone],pH dependent solubility,pH 4.1,25 mg/ml
same,pH dependent solubility,pH 6,0.9 mg/ml
same,pH dependent solubility,pH 8,0.9 mg/ml
Nc1nc(O)c2ncn(COC(CO)CO)c2n1 [gancyclovir],solubility in water,alkaline pH,> 100 mg/mL
same,solubility in water,pH 7.4,2.5 mg/mL
CC(C)Cc1ccc(C(C)C(=O)O)cc1 (centres unmarked) [ibuprofen],solubility (in words),alkaline pH,soluble at alkaline pH
same,solubility (in words),neutral pH,poorly soluble at neutral pH
CCn1cc(C(=O)O)c(=O)c2cc(F)c(N3CCNCC3)cc21 [norfloxacin],pH-dependent solubility,pH 6.5,2.8 mg/ml
same,pH-dependent solubility,pH 7.0,1.5 mg/ml
same,pH-dependent solubility,pH 8.0,1.9 mg/ml
same,pH-dependent solubility,pH <5.5,> 40 mg/ml
